We go through 23 molecules from PubChem BioAssay (NCI).

As usually defined, the TGI is the concentration at which net growth stops. High values mean less potent growth arrest, low ones more potent growth arrest.

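1) Cells in 96-well plates. 2) Compound, 48 h, 5 concentrations. 3) Linear interpolation between surrounding doses. 4) Unreached endpoint = highest concentration. TGI is the concentration that stops growth completely.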

Test systems include 786-0 renal; DLD-1 colon; DMS 114 small cell lung; DMS 273 small cell lung; HL-60(TB) leukemia; KM20L2 colon; NCI-H23 lung; NCI-H460 lung; NCI-H522 lung; OVCAR-4 ovarian; HS 578T breast; MCF7 breast.
Holding throughout (experiment): DTP human tumour cell line panel, 48 h

Consider `CN(c1ccccc1)c1c(Cl)c(=O)oc2c1ccc1occc12`, for which the concentration for total growth inhibition (TGI) in the test on 786-0 renal, in the test on DLD-1 colon, with DMS 114 small cell lung, in the test on DMS 273 small cell lung, with HL-60(TB) leukemia and with KM20L2 colon was > 100 µM each time. Besides, the concentration for total growth inhibition (TGI) in the test on NCI-H23 lung, with NCI-H460 lung, with NCI-H522 lung and in the test with OVCAR-4 ovarian was > 100 µM each time.
As for `C=CCc1cc(OC)c2c(c1)C(OC)CC(c1ccc(OC)c(OC)c1)O2` (stereo not given), the concentration for total growth inhibition (TGI) with 786-0 renal, with DLD-1 colon, in the test with DMS 114 small cell lung, with DMS 273 small cell lung, in the test with HL-60(TB) leukemia and in the test on KM20L2 colon was > 100 µM each time. The concentration for total growth inhibition (TGI) with NCI-H460 lung and in the test on OVCAR-4 ovarian was > 100 µM in each case.
Regarding `CC1(C)C(=O)C(C)(C)C1=S`, the TGI in the test with 786-0 renal, in the test on DLD-1 colon, with DMS 114 small cell lung, in the test on DMS 273 small cell lung, with HL-60(TB) leukemia and with KM20L2 colon was > 100 µM each time. In addition, the TGI with NCI-H23 lung, in the test with NCI-H460 lung, in the test with NCI-H522 lung and with OVCAR-4 ovarian was > 100 µM each time.
For `COc1cc(CCc2ccc(N)cc2)cc(OC)c1OC`, the TGI with 786-0 renal is > 100 µM; in the test on DLD-1 colon it was > 100 µM; with DMS 114 small cell lung, 83.8 µM; in the test on DMS 273 small cell lung, > 100 µM; with HL-60(TB) leukemia, > 92.5 µM; with KM20L2 colon it was > 100 µM. The total growth inhibition concentration (TGI) with NCI-H23 lung was > 100 µM; in the test on NCI-H460 lung, > 100 µM; in the test with NCI-H522 lung, > 83.4 µM; in the test on OVCAR-4 ovarian it was > 100 µM.
For `CCOC(=O)C1(C)CCCCC(=O)N1` (stereo not given), the total growth inhibition concentration (TGI) with 786-0 renal, in the test on DLD-1 colon, in the test on DMS 114 small cell lung, with DMS 273 small cell lung, in the test on HL-60(TB) leukemia and with KM20L2 colon was > 100 µM each time. The TGI with NCI-H23 lung, in the test on NCI-H460 lung and in the test with OVCAR-4 ovarian was > 100 µM throughout.
As for `c1ccc2c(c1)cc1n2CC2CN=NC12` (stereo not given), the TGI in the test with 786-0 renal, in the test on DLD-1 colon, in the test with DMS 273 small cell lung, with HL-60(TB) leukemia, in the test on KM20L2 colon and with NCI-H460 lung was > 100 µM each time. Further, the TGI in the test on NCI-H522 lung and in the test with OVCAR-4 ovarian was > 100 µM in each case.
As for `Nc1c(Cl)ncnc1NCCCNc1ncnc(Cl)c1N`, the TGI in the test on 786-0 renal, in the test on DLD-1 colon, in the test with DMS 114 small cell lung, in the test with DMS 273 small cell lung, in the test on HL-60(TB) leukemia and in the test with KM20L2 colon was > 100 µM throughout. Further, the TGI in the test on NCI-H23 lung, in the test on NCI-H460 lung, with NCI-H522 lung and in the test with OVCAR-4 ovarian was > 100 µM in each case.
On to `ClC(Cl)[Si]12OCCN(CCO1)CCO2`, for which the total growth inhibition concentration (TGI) with 786-0 renal, in the test with DLD-1 colon, with DMS 114 small cell lung, in the test with DMS 273 small cell lung, with HL-60(TB) leukemia and in the test on NCI-H23 lung was > 100 µM throughout. Also, the total growth inhibition concentration (TGI) with NCI-H460 lung and in the test on NCI-H522 lung was > 100 µM throughout.
In the case of `CCOc1ccc(NC(=O)CC2C(=O)Nc3ccccc3S2(=O)=O)cc1` (stereo not given), the TGI with 786-0 renal, in the test with DLD-1 colon, in the test with DMS 114 small cell lung, with HL-60(TB) leukemia, in the test on KM20L2 colon and in the test with NCI-H23 lung was > 100 µM each time. Also, the TGI in the test with NCI-H460 lung, in the test with NCI-H522 lung and with OVCAR-4 ovarian was > 100 µM each time.
Turning to `CC(=O)NNc1nc(C)c(C(=O)NNC(=O)C(=O)Nc2ccc(Cl)cc2Cl)s1`, the TGI in the test on 786-0 renal was > 100 µM; in the test with DLD-1 colon it was > 100 µM; with DMS 114 small cell lung it was > 100 µM; with HL-60(TB) leukemia, 99.2 µM; in the test on KM20L2 colon, > 100 µM; in the test with NCI-H23 lung, 96.4 µM. In addition, the concentration for total growth inhibition (TGI) with NCI-H522 lung was 52.8 µM; in the test on OVCAR-4 ovarian it was 56.8 µM.
As to `Cc1c(/C=N/N(C)C)oc2c1cc(O)c1ncccc12`, the total growth inhibition concentration (TGI) was > 100 µM in the test with 786-0 renal; > 100 µM with DLD-1 colon; 8.59 µM in the test with DMS 114 small cell lung; 37.7 µM in the test with DMS 273 small cell lung; 6.46 µM in the test on HL-60(TB) leukemia; > 100 µM in the test with KM20L2 colon. For the same molecule, the TGI was > 100 µM in the test with NCI-H23 lung, 41 µM with NCI-H460 lung, 8.58 µM in the test on NCI-H522 lung and 96.6 µM in the test on OVCAR-4 ovarian.
Take `Cn1nc(-c2ccccc2)c2c(/C=C/c3ccccc3)onc2c1=O`: the TGI with 786-0 renal, with DLD-1 colon, in the test on DMS 114 small cell lung, in the test on HL-60(TB) leukemia, in the test with KM20L2 colon and in the test on NCI-H23 lung was > 100 µM throughout. Besides, the TGI in the test with NCI-H460 lung and with NCI-H522 lung was > 100 µM throughout.
Regarding `CC(C)(C)C(C#N)(C#N)c1ccc(C(C#N)(C#N)C(C)(C)C)nn1`, the TGI with 786-0 renal, with DLD-1 colon, with DMS 114 small cell lung, in the test on DMS 273 small cell lung, in the test with HL-60(TB) leukemia and with KM20L2 colon was > 100 µM in each case. Besides, the TGI in the test with NCI-H23 lung, in the test on NCI-H460 lung, with NCI-H522 lung and in the test with OVCAR-4 ovarian was > 100 µM each time.
`Cc1ccc(S(=O)(=O)N/N=C(/c2nc3ccc([N+](=O)[O-])cc3[nH]c2=O)C(O)c2ccc(C(O)/C(=N\NS(=O)(=O)c3ccc(C)cc3)c3nc4ccc([N+](=O)[O-])cc4[nH]c3=O)cc2)cc1` (stereo not given): the TGI in the test on 786-0 renal was > 100 µM; in the test with DLD-1 colon it was > 100 µM; in the test on DMS 114 small cell lung it was > 100 µM; in the test with DMS 273 small cell lung it was > 100 µM; with HL-60(TB) leukemia, 98.3 µM; in the test with KM20L2 colon, > 100 µM. In addition, the TGI is > 100 µM with NCI-H23 lung, > 100 µM in the test with NCI-H460 lung and 55.7 µM in the test with NCI-H522 lung.
As to `COc1cccc(-c2cc(=O)c3ccccc3[nH]2)c1`, the total growth inhibition concentration (TGI) in the test on 786-0 renal was > 100 µM; with DLD-1 colon, > 100 µM; in the test on DMS 114 small cell lung it was > 59.3 µM; with DMS 273 small cell lung it was > 100 µM; in the test with HL-60(TB) leukemia, 8.57 µM; in the test on KM20L2 colon it was 27.1 µM. Also, the TGI in the test on NCI-H23 lung is > 100 µM; in the test with NCI-H460 lung, > 100 µM; in the test on NCI-H522 lung it was > 34.2 µM; in the test with OVCAR-4 ovarian, > 100 µM.
As to `C[C@]12CCC3[C@@H](CC[C@@H]4c5nonc5CC[C@]34C)C1CC[C@@H]2O` (stereo not given in full), the total growth inhibition concentration (TGI) is 75.5 µM in the test with 786-0 renal; 69.4 µM with DLD-1 colon; 71.2 µM in the test with DMS 114 small cell lung; 60.8 µM in the test with DMS 273 small cell lung; 43.9 µM with HL-60(TB) leukemia; > 100 µM with KM20L2 colon. Further, the concentration for total growth inhibition (TGI) in the test with NCI-H23 lung was > 100 µM; in the test on NCI-H460 lung, 71.7 µM; with NCI-H522 lung, 50.9 µM; with OVCAR-4 ovarian, 82.4 µM.
On to `O=c1[nH]cnc2c1nnn2CCCCCCCCCCCCn1nnc2c(=O)[nH]cnc21`, for which the TGI is 60.5 µM with 786-0 renal; > 100 µM in the test with DLD-1 colon; 39.4 µM with DMS 114 small cell lung; > 100 µM in the test on DMS 273 small cell lung; > 100 µM with HL-60(TB) leukemia; 60.7 µM in the test with HS 578T breast. The TGI was > 100 µM in the test on KM20L2 colon; > 100 µM in the test on MCF7 breast; 39.2 µM with NCI-H23 lung; > 100 µM in the test with NCI-H460 lung; 63 µM with NCI-H522 lung; > 100 µM with OVCAR-4 ovarian.
Regarding `NS(=O)(=O)OCCCCCCCOS(N)(=O)=O`, the TGI worked out at 571 µM in the test with 786-0 renal; 1540 µM in the test on DLD-1 colon; 669 µM in the test with DMS 114 small cell lung; 454 µM in the test on DMS 273 small cell lung; 469 µM in the test on HL-60(TB) leukemia; 1790 µM in the test with HS 578T breast. The total growth inhibition concentration (TGI) in the test on KM20L2 colon came to 1470 µM; in the test with MCF7 breast, 1780 µM; with NCI-H23 lung, 795 µM; in the test on NCI-H460 lung, 401 µM; in the test with NCI-H522 lung, 916 µM; in the test on OVCAR-4 ovarian, 1110 µM.
`NC(=O)NC1C(C(N)=O)N(Cc2ccccc2)C(=O)N1Cc1ccccc1` (stereo not given): the TGI with 786-0 renal, in the test on DLD-1 colon, in the test with DMS 114 small cell lung, with DMS 273 small cell lung, in the test with HL-60(TB) leukemia and with KM20L2 colon was > 100 µM throughout. The concentration for total growth inhibition (TGI) with NCI-H23 lung, in the test on NCI-H460 lung, with NCI-H522 lung and with OVCAR-4 ovarian was > 100 µM each time.
Take `CC(=O)OC1COC(n2c(=S)n(-c3ccccc3)c(=O)c3ccccc32)C(OC(C)=O)C1OC(C)=O` (stereo not given): the TGI with 786-0 renal, with DLD-1 colon, in the test with DMS 114 small cell lung, with DMS 273 small cell lung, with HL-60(TB) leukemia and with KM20L2 colon was > 100 µM throughout. In addition, the TGI in the test with NCI-H23 lung, with NCI-H460 lung, in the test on NCI-H522 lung and with OVCAR-4 ovarian was > 100 µM throughout.
For `CC1=C(C(=O)Nc2ccc(Cl)c(C(=O)OC(C)C)c2)SCCO1`, the TGI with 786-0 renal is > 100 µM; in the test with DLD-1 colon it was > 79.4 µM; in the test on DMS 273 small cell lung it was 73.1 µM; in the test on HL-60(TB) leukemia it was 51 µM; with HS 578T breast, 73.9 µM; in the test with KM20L2 colon it was 73.9 µM. The TGI was > 90.4 µM with MCF7 breast; 96.3 µM in the test on NCI-H23 lung; 99.6 µM with NCI-H460 lung; 69.9 µM in the test on NCI-H522 lung; > 97.6 µM in the test on OVCAR-4 ovarian.
For the molecule `CC1=C(C(=O)Nc2cc(F)c(F)cc2F)C(c2ccc([N+](=O)[O-])cc2)C(C(=O)Nc2cc(F)c(F)cc2F)=C(C)N1`, the concentration for total growth inhibition (TGI) was > 100 µM in the test with 786-0 renal; > 100 µM in the test with DLD-1 colon; > 100 µM in the test with DMS 114 small cell lung; 35.7 µM in the test on HL-60(TB) leukemia; > 100 µM with KM20L2 colon; > 100 µM in the test with NCI-H23 lung. In addition, the TGI is > 100 µM in the test with NCI-H460 lung, 55.6 µM in the test on NCI-H522 lung and > 100 µM in the test with OVCAR-4 ovarian.
Regarding `O=C(NNc1ccccc1)/C(=C/c1ccc2c(c1)OCO2)NC(=O)c1ccccc1`, the total growth inhibition concentration (TGI) with 786-0 renal, in the test with DLD-1 colon, in the test on DMS 273 small cell lung, in the test with HL-60(TB) leukemia, in the test on KM20L2 colon and in the test on NCI-H23 lung was > 100 µM throughout. Also, the TGI in the test with NCI-H460 lung, with NCI-H522 lung and in the test with OVCAR-4 ovarian was > 100 µM each time.
